# According to patent US7834011B2, “Heterocyclylalkyl derivatives as novel inhibitors of histone deacetylase” (Janssen Pharmaceutica N.V., priority 2006, dated 2010):
# Test: Metabolic stability with rat hepatocytes cell culture C.5.b
# Assay type: in vitro ADME
# Conditions: male, Sprague Dowley, rat hepatocyte cell cultures, read-out: in vitro half-life
# Description: Metabolism of drugs means that a lipid-soluble xenobiotic or endobiotic compound is enzymatically transformed into (a) polar, water-soluble, and excretable metabolite(s). The major organ for drug metabolism is the liver. […] However, some metabolites may have enhanced activity or toxic effects. Thus drug metabolism may include both “detoxication” and “toxication” processes. One of the major enzyme systems that determine the organism's capability of dealing with drugs and chemicals is represented by the cytochrome P450 monooxygenases, which are NADPH dependent enzymes. Metabolic stability of compounds can be determined in vitro with the use of subcellular human tissue (see example C.5.a.). Here metabolic stability of the compounds is expressed as % of drug metabolised after 15 minutes incubation of these compounds with microsomes. Quantitation of the compounds was determined by LC-MS analysis. Metabolic stability of compounds can also be determined by calculating the half live of compounds in rat hepatocyte cells (see example C.5.b.).
# Rat hepatocytes were isolated from male Sprague Dowley rats. The compounds were dissolved to a 5 mM stock solution in 100% DMSO and incubated at a final concentration of 5 μM for 0, 15, 30, 60 and 120 min with rat hepatocyte cell cultures (0.5 million viable cells/0.5 ml) using 24-well plates.
# Samples were prepared for LC-MS by addition of two volumes of DMSO. The samples were thoroughly shaken and subsequently centrifuged at 900 g for 10 min (room temperature). All experiments were performed in triplicate. Of the resulting supernatant 50 μl was analysed by LC-MS.
# For LC-MS, elution of samples was performed on a Hypersil BDS C18 column (50×4.6 mm, 5 μm, Thermohypersil, UK). […]
# Total injection volume of samples was 50 μL. […] The mass spectrometer was operated in positive ion mode in SIM adjusted to the mass of M+H with a scan width of 1 Da for quantification purposes. […] The metabolic stability of compounds in rat hepatocytes was expressed as in vitro half-lives. […]
structure (smiles),measurement,value
Cn1c(CNCC2CCN(c3ncc(C(=O)NO)cn3)CC2)nc2ccccc21 [Compound 3],half-life at 5 μM,30 to 55 min
